# Laboratory results: patent US20190365776A1, “THERAPEUTIC AGENT FOR OCULAR FUNDUS DISEASE” (KYUSHU UNIVERSITY, NATIONAL UNIVERSITY CORPORATION, priority 2013, published 2019)
# Columns and labels:
# [1] = test system: mice OIR (Oxygen-Induced Retinopathy) model; test: Mice OIR model, fluorescein fundus angiography; format: in vivo, C57BL/6JJcl mice; details: 0.8% solution, ocular instillation three times a day, day 17 after birth
# Source text: C57BL/6JJcl mice born on the same day were reared in a 75%-oxygen environment from day 7 after birth, and were then transferred to a normal indoor environment on day 12 after birth to start administration by ocular instillation. Test groups were a saline instillation group (control), a 0.4% compound 1 solution instillation group, a 0.8% compound 1 solution instillation group, and a 0.4% fasudil solution instillation group, and saline, the compound 1 solution, or the fasudil solution was administered by ocular instillation three times a day. On day 17 after birth, ischemic retinal areas (non-perfused areas) and neovascular areas were quantified for evaluation by flat-mounting or fluorescein fundus angiography. More specifically, 1 g/kg of pentobarbital (Nembutal) was administered intraperitoneally for euthanasia under deep anesthesia, and then both eyeballs were excised and fixed with 4% paraformaldehyde (PFA) at 37° C. for 1 hour, and the corneal limbus was circumferentially incised to remove the cornea and iris from the eyeball. […] Then, the image of the flat-mounted retina was taken with a fluorescence microscope (BZ-9000, KEYENCE Corp, Osaka, Japan), and the proportion of the non-perfused area to the entire retina and the proportion of the neovascular area to the entire retina were calculated by the following formulas in NIH image J software. […]
# [2] = test system: mice CNV (Choroidal Neovascularization) model; test: Mice CNV (choroidal neovascularization) model, laser photocoagulation; format: in vivo, C57BL/6JJcl mice; details: ocular instillation three times a day, day 0 to day 7, control 109177±26399
# Method: The effectiveness of the compound 1 in a mice CNV model known as a model of age-related macular degeneration or the like was examined in the following manner.
# Compound 1 solutions prepared in the same manner as in Example 1: 0.4% solution, 0.8% solution (instillation volume: 20 μL)
# Test animals: C57BL/6JJcl mice (6- to 10-week old, sex: male, 11 to 12 mice per group)
# The preparation of a CNV model and evaluation were performed with reference to a literature (e.g., J. Leukoc. Biol. 2003; 74: 25-32, or Am. J. Pathol. 1998; 153: 1641-1646). More specifically, each of the mice was given tropicamide by ocular instillation to cause mydriasis, anesthetized by intraperitoneal administration of 100 mg/kg of Ketalar and 10 mg/kg of Selactar, and subjected to photocoagulation at 4 spots per eye. The photocoagulation was performed by krypton laser irradiation (75-μm spot size, 0.1 seconds duration, 200 mW) with a slit-lamp delivery system using a cover glass as a contact lens. Test groups were a saline instillation group (control), a 0.4% compound 1 solution instillation group, and a 0.8% compound 1 solution instillation group. […] More specifically, a spot with bleeding or tissue destruction was excluded, the CNV volume of each spot adopted was calculated by NIS-Elements AR Version 4.13, and then an average value (μm^3) per eye was calculated.
# [3] = test system: Kimba (trVEGF029) mice; test: Kimba (trVEGF029) mice, fluorescein fundus angiography and optical coherence tomography; format: in vivo; details: 0.8% solution, ocular instillation three times a day for 2 weeks
# Method: The effectiveness of the compound 1 in Kimba (trVEGF029) mice known as mice transgenic for VEGF gene, which develop retinal neovascularization, was examined in the following manner.
# Compound 1 solution prepared in the same manner as in Example 1: 0.8% solution (instillation volume: 20 μL)
# Test animals: Kimba mice (available from Lions Eye Institute Ltd., 6 mice per group)
# One-month-old Kimba mice born on the same day were given saline (control) or the 0.8% compound 1 solution by ocular instillation three times a day for 2 weeks, and were then subjected to fluorescein fundus angiography and optical coherence tomography under anesthesia for evaluation. More specifically, in fluorescein fundus angiography, each of the mice was first given tropicamide by ocular instillation to cause mydriasis and then anesthetized by intraperitoneal administration of 100 mg/kg of Ketalar and 10 mg/kg of Selactar, given 6 μL/g of a contrast agent for fluorescein fundus angiography by intraperitoneal injection, and subjected to fluorescein fundus angiography using Heidelberg Retina Angiograph (HRA, Heidelberg, Germany). […]
structure (smiles),measurement,setting,value
"C[C@H]1CNCCCN1S(=O)(=O)c1cccc2cncc(F)c12 [compound 1, (S)-(−)-1-(4-fluoro-5-isoquinolinesulfonyl)-2-methyl-1,4-homopiperazine]",relative value of the neovascular area (saline instillation group = 100%),[1],41.6%
same,"CNV volume (mean±standard error, average per eye)",[2]; 0.4% solution,56408±9007 μm^3
same,"CNV volume (mean±standard error, average per eye)",[2]; 0.8% solution,88387±33678 μm^3
same,edema (fluorescein fundus angiography / optical coherence tomography images),[3],suppression of edema is observed
same,average maximum retinal thickness (mean±standard error),"[3]; optical coherence tomography, saline control 361.8±36.1",256.7±35.7 μm
